Laboratory results published in publication PMC10291553, “Exploring Structure–Activity Relationships in Photodynamic Therapy Anticancer Agents Based on Ir(III)-COUPY Conjugates” (Journal of Medicinal Chemistry, 2023).
Like-named read-outs stand apart in the source and are kept apart here.

System: A2780cis cells
Experiment: Photo- and cytotoxic activity determination (MTT), A2780cis cells, normoxia or hypoxia
Type: cell-based
Details: A2780cis; for inhibition at 250 µM: 2 h incubation in the dark, 48 h drug-free recovery
Text: Having shown that the Ir(III)-COUPY conjugates can sensitize both type I and II ROS through spectroscopic techniques and readily internalize into living cells, their photocytotoxicity was screened in various cancer cell lines. This screening included two representative melanoma cell lines (human A375 and […] human SK-MEL-28) and cancer cells with resistance to the clinical drug cisplatin. For the latter, both sensitive and cisplatin-resistant ovarian cancer cells (A2780 and A2780cis) as well as HeLa cells, which also show a degree of chemoresistance to the platinum anticancer drug in vitro,[54] were used. For the determination of dark and light cytotoxicity, dose–response curves were assayed from both conditions to provide the correspondent IC50 values, which correspond to the concentration needed for inhibition of cell growth by 50%. Phototherapeutic index (PI) was calculated as the ratio of dark to light IC50 value for each compound.
A375, HeLa, and SK-MEL-28 cells were cultured in Dulbecco’s modified Eagle medium (DMEM) supplemented with 10% FBS, L-glutamine, and 1% penicillin–streptomycin. A2780 and A2780cis cells were grown in RPMI-1640 cell medium supplemented with 10% fetal bovine serum (FBS) and 2 mM L-glutamine. Acquired resistance to cisplatin in the A2780cis cell line was maintained by adding cisplatin 1 μM to culture medium every second passage. Cells were cultured in a humidified incubator at 310 K with 5% CO2 atmosphere and subcultured two or three times a week with appropriate densities and were confirmed to be mycoplasma-free using a standard Hoechst DNA staining method.
A2780, A2780cis, HeLa, A375, and SK-MEL-28 cells were maintained at logarithmic growth-phase and cultured in 96-well plates at a density of 5000 cells/well in complete medium for 24 h at 310 K, 5% CO2 in a humidified incubator. For hypoxia experiments, a hypoxia condition was set up by Tissue Culture Service at University of Murcia using nitrogen (N2) to displace O2 down to a minimum of 2% in a Forma Steri-Cycle i160 incubator (Thermo Fisher Scientific). […] A light-based treatment schedule was performed as follows: 1 h incubation with the compounds in the dark, followed by 1 h incubation under irradiation conditions by placing the Photoreactor EXPO-LED from Luzchem (Canada) fitted with green lamps (final light intensity applied of 1.5 mW/cm^2 at λmax = 520 nm) inside the CO2 incubator. All the cell culture plates subjected to light irradiation included untreated controls to verify that cell viability was not affected by light. Then, treatment-containing media was removed, and fresh media was added for a 48 h cell recovery period; the temperature throughout the experiment remained at 310 K. Dark control samples were placed in the same dark conditions and then kept incubated for 1 h in the dark in the humidified CO2 incubator. Medium was then aspirated by suction, cells were loaded with 50 μL of MTT solution (1 mg/mL) for additional 4 h and then removed, and 50 μL of DMSO was added to solubilize the purple formazan crystals formed in active cells. The absorbance was measured at 570 nm using a microplate reader (FLUOstar Omega), and the IC50 values were calculated based on the inhibitory rate curves using the following equation [drawing 4] 4 where I represents the percentage inhibition of viability observed, Imax is the maximal inhibitory effect, IC50 is the concentration that inhibits 50% of maximal growth, C is the concentration of the treatment, and n is the slope of the semi-logarithmic dose–response sigmoidal curves. The non-linear fitting was performed using SigmaPlot 14.0 software. All experiments were performed in three independent studies with n = 3 replicates per concentration level. For a detailed phototoxicity procedure, ref ([43]) includes technical explanations.

For `NCC(=O)CCC(=O)O` [5-ALA, 5-aminolevulinic acid, reference compound], the inhibition at 250 µM (hypoxia, read-out: Partial inhibition (% of cell growth inhibition with respect to untreated controls), Hypoxia) was 1 ± 0.2%, the inhibition at 250 µM (normoxia, read-out: Partial inhibition (% of cell growth inhibition with respect to untreated controls), Normoxia) was 3.5 ± 0.4% and the IC50 (hypoxia 2% O2, 1 h incubation + 1 h green light 520 nm, 48 h drug-free, read-out: Hypoxia 520 nm IC50) was > 250 µM. The IC50 (hypoxia 2% O2, dark, tested up to 250 μM, read-out: Hypoxia Dark IC50) was > 250 µM, the IC50 (hypoxia, 520 nm, read-out: A2780cis Light 520 nm IC50 (microM) Hypoxia) was > 250 µM and the IC50 (hypoxia, dark, read-out: A2780cis Dark IC50 (microM) Hypoxia) was > 250 µM. The “Normoxia PI (phototherapeutic index)” value (normoxia 21% O2, 520 nm, dark tested up to 250 μM) was > 4.0, the IC50 (normoxia 21% O2, dark, tested up to 250 μM, read-out: Normoxia Dark IC50) was > 250 µM and the IC50 (normoxia, 520 nm, read-out: A2780cis Light 520 nm IC50 (microM) Normoxia) was 62 ± 12 µM. The IC50 (normoxia, dark, up to 250 microM, read-out: A2780cis Dark IC50 (microM) Normoxia) was > 250 µM.
